Results taken from patent US11666577B2 (National Institute of Biological Sciences, Beijing, priority 2018, dated 2023).
Where two headings read alike, the source gives them in different places.

Test system: HT-29 cells
Test: Necroptosis assay (TNF-α/Smac mimetic/z-VAD, TSZ-induced) in HT-29 cells
Type: cell-based, human
Experimental: Methods: HT-29 cells were cultured in McCoy's 5 A culture medium (Invitrogen). On day one, HT-29 cells were plated in 96-well assay plates at density of 2,500-3,500 cells per well. On day two, necrosis were induced by adding 20 ng/ml TNF-α (T), 100 nM Smac mimetic (S), and […] z-VAD (Z). At the same time, 10 mM compound from a chemical library of ˜200,000 compounds was delivered into each well. After 24 hrs treatment, cell viability was determined by measuring ATP level using the Cell Titer-Glo Luminescent Cell Viability Assay kit. A CellTiter-Glo Assay (Promega) was performed according to the manufacturer's instructions. Luminescence was recorded with a PerkinElmer EnSpire Multimode Plate Reader. Survived cells were normalized to those cells treated with DMSO. RIPA-56 was used as a positive control for screening necroptosis inhibitors. Data are represented as mean±standard deviation of duplicates.
In previous work, we performed a cell-based high-throughput screen to identify necroptosis inhibitors using a chemical library of ˜200,000 compounds and identified multiple compounds that protected human colorectal adenocarcinoma (HT-29) cells from TNF-α/Smac mimetic/Z-VAD-fmk (TSZ)-induced necroptosis.^[4]
The anti-necroptosis potency of compounds 7-12 and 14-18 was evaluated in the HT-29 cell line; the EC50 values are shown in Table B.
[a] Necroptosis was induced in HT-29 cells for 24 h; the EC50 values given here are the mean values of at least three independent analyses.

[1] = Homo sapiens, Series 1 (Table 1) compounds 1-146, HT-29 cells, TNF-α/Smac mimetic/z-VAD, 24 hrs, cell viability by ATP level, read-out: Series 1 compound necroptosis activity
[2] = Series 1 (Table 1) compounds 1-146, HT-29 cells, TNF-α/Smac mimetic/z-VAD, 24 hrs, cell viability by ATP level, read-out: Series 1 compound necroptosis activity
[3] = Homo sapiens, Series 2 (Table 2) compounds, HT-29 necroptosis assay, read-out: Series 2 compound necroptosis activity

CCn1c(=O)n(C)c(=O)c2c1nc(S(C)(=O)=O)n2C [Compound 100, 3-ethyl-1,7-dimethyl-8-(methylsulfonyl)-1H-purine-2,6(3H,7H)-dione] showed an EC50 [1] of 1 to 100 µM.

CCC[S+]([O-])c1nc2c(c(=O)n(C)c(=O)n2C)n1CC (stereo not drawn) [Compound 79, 7-ethyl-1,3-dimethyl-8-(propylsulfinyl)-1H-purine-2,6(3H,7H)-dione] showed an EC50 [2] of 1 to 1000 µM.

With Cn1c(=O)c2c(nc(S(=O)(=O)Cc3cccc(Cl)c3Cl)n2C)n(C)c1=O [Compound 54, 8-(2,3-dichlorobenzylsulfonyl)-1,3,7-trimethyl-1H-purine-2,6(3H,7H)-dione] the EC50 [2] was 1 to 1000 µM.

Molecule COc1ccc(OC)c(CS(=O)(=O)c2nc3c(c(=O)n(C)c(=O)n3C)n2C)c1 [Compound 58, 8-(2,5-dimethoxybenzylsulfonyl)-1,3,7-trimethyl-1H-purine-2,6(3H,7H)-dione] has an EC50 [1] of 1 to 10 µM.

Cn1c(=O)c2c(nc(S(=O)(=O)Cc3ccc4ccccc4c3)n2C)n(C)c1=O [Compound 23, 1,3,7-trimethyl-8-(naphthalen-2-ylmethylsulfonyl)-1H-purine-2,6(3H,7H)-dione] gave an EC50 [2] of 1 to 1000 µM.

Molecule Cn1c(=O)c2c(nc(S(=O)(=O)Cc3ccccn3)n2C)n(C)c1=O [Compound 48, 1,3,7-trimethyl-8-(pyridin-2-ylmethylsulfonyl)-1H-purine-2,6(3H,7H)-dione] has an EC50 [2] of 1 to 1000 µM.

Molecule Cn1c(=O)c2c(nc3n2CCS3(=O)=O)n(CC#Cc2cccc(NCCN3CCOCC3)c2)c1=O [Compound 67] has an EC50 [3] of 0.001 to 0.1 µM.

Work on Cn1c(=O)c2c(nc(S(=O)(=O)CC3CC3)n2C)n(CC#Cc2cccc(Cl)c2)c1=O [Compound 119, 3-(3-(3-chlorophenyl)prop-2-yn-1-yl)-8-((cyclopropylmethyl)sulfonyl)-1,7-dimethyl-3,7-dihydro-1H-purine-2,6-dione] yielded an EC50 [1] of 1 to 10 µM.

Cn1c(=O)c2c(nc(S(=O)(=O)CC3CC3)n2C)n(Cc2ccncc2)c1=O [Compound 144, 8-((cyclopropylmethyl)sulfonyl)-1,7-dimethyl-3-(pyridin-4-ylmethyl)-1H-purine-2,6(3H,7H)-dione] showed an EC50 [2] of 1 to 1000 µM.

In the case of Cn1c(=O)c2c(nc(S(=O)(=O)CC3CC3)n2C)n(Cc2cccc(Cl)c2)c1=O [Compound 137, 3-(3-chlorobenzyl)-8-((cyclopropylmethyl)sulfonyl)-1,7-dimethyl-1H-purine-2,6(3H,7H)-dione], the EC50 [1] is reported as 1 to 100 µM.

For Cn1c(=O)c2c(nc(S(=O)(=O)Cc3ccc(Cl)cc3)n2C)n(C)c1=O [Compound 31, 8-(4-chlorobenzylsulfonyl)-1,3,7-trimethyl-1H-purine-2,6(3H,7H)-dione], the EC50 [2] was 1 to 1000 µM.

Cn1c(=O)c2c(nc(S(=O)(=O)Cc3cc(Cl)ccc3Cl)n2C)n(C)c1=O [Compound 55, 8-(2,5-dichlorobenzylsulfonyl)-1,3,7-trimethyl-1H-purine-2,6(3H,7H)-dione] gave an EC50 [1] of 1 to 100 µM.

Molecule COc1ccc(CS(=O)(=O)c2nc3c(c(=O)n(C)c(=O)n3C)n2C)cc1 [Compound 37, 8-(4-methoxybenzylsulfonyl)-1,3,7-trimethyl-1H-purine-2,6(3H,7H)-dione] has an EC50 [2] of 1 to 1000 µM.

Molecule Cn1c(=O)c2c(nc(S(=O)(=O)Cc3c(Cl)cccc3Cl)n2C)n(C)c1=O [Compound 57, 8-(2,6-dichlorobenzylsulfonyl)-1,3,7-trimethyl-1H-purine-2,6(3H,7H)-dione] has an EC50 [2] of 1 to 1000 µM.

In the case of COc1ccc(OC)c(Cn2c(=O)n(C)c(=O)c3c2nc(S(=O)(=O)Cc2cc(OC)ccc2OC)n3C)c1 [Compound 129, 3-(2,5-dimethoxybenzyl)-8-(2,5-dimethoxybenzylsulfonyl)-1,7-dimethyl-1H-purine-2,6(3H,7H)-dione], the EC50 [1] is reported as 1 to 100 µM.

Cn1c(=O)c2c(nc(S(C)(=O)=O)n2C)n(Cc2ccccc2)c1=O [Compound 103, 3-benzyl-1,7-dimethyl-8-(methylsulfonyl)-1H-purine-2,6(3H,7H)-dione] was tested, and the EC50 [1] was 1 to 100 µM.

With Cn1c(=O)c2c(nc(S(=O)(=O)CC3CC3)n2C)n(CC#Cc2cc(NC(=O)C3CC3)cc(NC(=O)C3CC3)c2)c1=O [Compound 30] the EC50 [3] was 0.001 to 0.1 µM.

For Cn1c(=O)c2c(nc(S(C)(=O)=O)n2C)n(CC#Cc2cc(NC(=O)CN3CCOCC3)cc(NC(=O)C3CC3)c2)c1=O [Compound 36], the EC50 [3] was 0.001 to 0.1 µM.
